Consider 22 compounds from PubChem BioAssay (NCI).

The structures appear in SMILES notation. “And” between values parts separate entries of the source, which are not always exact repeats. Equal entries are not always repeated.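 Values below derive from 48-hour exposures of cells grown in 96-well plates, with endpoints linearly interpolated between the two concentrations bracketing the appropriate inhibition level. Here, GI50 denotes the concentration required for 50% inhibition of growth. TGI: concentration producing complete growth inhibition.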 Where only a bound is given, the exact number is not on record here.

Holding throughout (experiment): inhibition of tumour cell growth, NCI panel, 48 h
Assay [1] concerns SF-268 CNS.
The subject of assay [2] is SNB-19 CNS.
In assay [3] the test system is CCRF-CEM leukemia.
For assay [4], the system named is SK-OV-3 ovarian.
In assay [5] the test system is MALME-3M melanoma.
Assay [6] concerns NCI-H460 lung.
The subject of assay [7] is NCI-H522 lung.
Assay [8] has as its system LOX IMVI melanoma.
Assay [9] has as its system TK-10 renal.
The test system of assay [10] is HT29 colon.

Turning to `O=C1C=CC(=Nc2ccc3c(c2)C(Br)c2ccccc2-3)O1` (stereo unspecified), the TGI in [1], in [2], in assay [3], in assay [4], in assay [5] and in assay [6] was more than 100 µM throughout. Moreover, the TGI in [7] is 81.7 µM; in [8] it was more than 100 µM; in [9], more than 100 µM.

Turning to `O=C(CI)NC1Oc2ccccc2-c2oc(=O)c(-c3ccccc3)cc21` (stereo unspecified), the GI50 is 1.68 µM in assay [1]; 2.64 µM in [2]; 0.305 µM in assay [3]; 1.83 µM in assay [4]; 1.73 µM in assay [5]; 0.307 µM in [8]. Further, the GI50 in assay [9] was 1.71 µM. The TGI in [1] is 3.36 µM; in [2], 7.54 µM; in assay [3], more than 100 µM; in [4], 3.48 µM; in assay [5], 3.27 µM; in assay [8] it was 1.07 µM. In [9], the TGI was found to be 3.13 µM.

As to `N#CC(C(=N/O)/C(=N/O)C(C#N)c1ccc(Cl)cc1)c1ccc(Cl)cc1` (stereo unspecified), the TGI in [10], in assay [1], in [2], in assay [4], in assay [5] and in assay [6] was more than 100 µM throughout. The TGI in assay [8] and in assay [9] was more than 100 µM each time.

`Cc1c(C(=O)N/N=C/c2ccc(Cl)cc2)nnn1-c1ccnc2c(C(F)(F)F)cccc12`: the GI50 is 11.7 µM in assay [1]; 12.1 µM in assay [2]; 14.8 µM in assay [3]; 11.6 µM in assay [4]; 1.53 µM in assay [5]; 4.49 µM in assay [6]. Further, the GI50 was 11.8 µM in assay [7], 1.69 µM in [8] and 2.6 µM in [9]. Further, the TGI was 28.2 µM in assay [1]; 30.2 µM in [2]; more than 100 µM in assay [3]; 25.2 µM in [4]; 4.4 µM in [5]; 15.8 µM in [6]. In addition, the TGI in [7] stood at 35.2 µM; in assay [8], 3.18 µM; in [9], 8.93 µM.

As to `COc1cc(C2c3cc4c(cc3C(NCC(O)CO)C3COC(=O)[C@H]23)OCO4)cc(OC)c1OC` (stereo partly specified), the TGI in [10], in [1], in [2], in [3], in assay [4] and in assay [5] was more than 100 µM each time. The TGI in assay [8] and in assay [9] was more than 100 µM throughout.

On to `COc1ccccc1C1C(C(=O)Nc2ccccc2)=C(C)NC(C)=C1C(=O)Nc1ccccc1`, for which the TGI in assay [10], in assay [1], in assay [2], in [4], in [5] and in assay [6] was more than 100 µM in each case. For the same compound, the TGI in assay [7], in [8] and in [9] was more than 100 µM in each case.

As for `COc1cccc(-c2cc(=O)c3cc(N(C)C)ccc3[nH]2)c1`, the TGI in assay [2] was 0.825 µM and 0.843 µM; in [5], more than 100 µM; in assay [7], 0.0445 µM and 0.0205 µM; in assay [9], 65 µM and 34.2 µM. For the same compound, the GI50 was 0.0135 µM and 0.00524 µM in [3]; 0.025 µM and 0.00359 µM in assay [4]; 0.00987 µM and 0.00403 µM in assay [5]; 0.0342 µM and 0.0169 µM in assay [6]; 0.0184 µM and 0.00392 µM in [7]; 0.0354 µM and 0.012 µM in assay [8].

Regarding `COc1ccc2cc1Oc1ccc(cc1)CC1c3cc(c(OC)cc3CCN1C)Oc1c3c(cc4c1C(C2)N(C)CC4)OCO3` (stereo unspecified), the TGI in [10] was 8.25 µM; in assay [1] it was 22.5 µM; in [2], 31.5 µM; in assay [3], 31.7 µM; in assay [6], 28.4 µM; in assay [7], 20.3 µM. Further, the TGI in [8] came out at 4.72 µM; in assay [9], 5.66 µM.

For the compound `COc1ccc(OC)c(NC(=O)C(=O)C(C(C)=O)c2nc3ccc(Cl)cc3[nH]c2=O)c1` (stereo unspecified), the TGI in [10] was more than 50 µM; in assay [1], more than 50 µM; in assay [2], more than 50 µM; in assay [3], more than 5 µM; in assay [4] it was more than 50 µM; in assay [5] it was more than 50 µM. Besides, the TGI in assay [6], in [8] and in assay [9] was more than 50 µM throughout.

For the compound `O=C1NNC=Nc2ccc(cc2)S(=O)(=O)c2ccc(cc2)N=CNNC1=O`, the TGI in assay [10], in assay [1], in assay [2], in assay [4], in [6] and in [7] was more than 100 µM each time. Further, the TGI in [8] and in assay [9] was more than 100 µM each time.

As to `Clc1ccc(C2N3CCCCC3[C@@H]3c4[nH]c5ccccc5c4CCN23)cc1` (stereo partly specified), the TGI in [10] is 49.9 µM; in [1], more than 100 µM; in assay [2], more than 100 µM; in assay [3], more than 100 µM; in [4], more than 100 µM; in assay [5], 90.4 µM. In addition, the TGI in assay [6] and in assay [9] was more than 100 µM throughout.

As for `Cn1cc(-c2cnc3ccc(NC(=O)Nc4ccc(F)c(Br)c4)cc3n2)cn1`, the GI50 in assay [1] was 2.38 µM; in assay [2], 2.66 µM; in assay [3], 2.06 µM; in [4], 2.24 µM; in assay [5], 1.56 µM; in assay [6], 1.74 µM. The GI50 in assay [7] is 1.71 µM; in assay [8] it was 1.51 µM; in assay [9] it was 2.09 µM. Moreover, the TGI in assay [1] worked out at 7 µM; in [2] it was 10.4 µM; in assay [3], 6.21 µM; in [4], 5.99 µM; in [5], 3.55 µM; in assay [6], 3.77 µM. Besides, the TGI came to 4.75 µM in [7], 2.9 µM in assay [8] and 5.5 µM in assay [9].

For the compound `Cc1ccc(-c2c3c([nH]c(=O)c2C#N)-c2cc(F)ccc2OC3)cc1`, the GI50 in assay [10] is more than 100 µM; in assay [2], 70.4 µM; in assay [3] it was 1.19 µM; in assay [4], 97.6 µM; in assay [6], 53.4 µM; in [7] it was 19 µM. Moreover, the GI50 was more than 100 µM in assay [8] and 29.4 µM in [9]. Also, the TGI was more than 100 µM in assay [10]; more than 100 µM in assay [2]; 7.25 µM in [3]; more than 100 µM in assay [4]; more than 100 µM in [6]; 59.2 µM in [7]. Further, the results for the TGI in assay [8] and in assay [9] were more than 100 µM and 80.9 µM, respectively.

Regarding `O=C1c2cccc(NCCN=Cc3cc(O)ccc3O)c2C(=O)c2c(NCCN=Cc3cc(O)ccc3O)cccc21`, the GI50 in assay [1] was 0.776 µM; in [2] it was 1.55 µM; in assay [3] it was 0.351 µM; in assay [4], 2.34 µM; in assay [7], 1.33 µM; in assay [8], 0.762 µM. Further, the GI50 in [9] was 2.21 µM. Also, the TGI in assay [1] was 3.25 µM; in assay [2], 5.1 µM; in assay [3], 1.63 µM; in [4] it was 7.63 µM; in [7] it was 3.24 µM; in [8] it was 2.25 µM. Moreover, in assay [9], the TGI is 5.8 µM.

In the case of `O=C1c2c(c3c4ccccc4n(CCCCCCBr)c3c3[nH]c4ccccc4c23)C(=O)N1O`, the GI50 in assay [10] is 1.73 µM; in assay [1], 3.48 µM; in assay [2] it was 4.98 µM; in assay [3], 2.14 µM; in [4], 2.87 µM; in assay [5], 2.65 µM. The GI50 in assay [6] is 3.35 µM; in assay [9], 3.13 µM. Besides, the TGI in [10] amounted to 3.25 µM; in assay [1], 18.3 µM; in assay [2] it was 21.5 µM; in assay [3], 5.53 µM; in [4], 10.4 µM; in assay [5] it was 7.74 µM. For the same compound, the TGI in [6] was 11.8 µM; in [9], 11.7 µM.

As to `CCCCCCCCCCCCCC(=O)OC1CC(=O)OC1CO` (stereo unspecified), the TGI is more than 100 µM in assay [10]; more than 100 µM in assay [1]; more than 100 µM in assay [2]; 74.4 µM in assay [3]; more than 100 µM in assay [4]; more than 100 µM in assay [5]. The TGI in assay [6] was more than 100 µM; in [8], 73.5 µM; in assay [9], more than 100 µM.

On to `Nc1ccn(C2O[C@H](CO)[C@@H](O)[C@@H]2O)c(=O)n1` (stereo partly specified), for which the TGI in assay [10], in [1], in assay [2], in [4], in assay [5] and in assay [6] was more than 100 µM each time. Besides, the TGI in assay [7], in assay [8] and in assay [9] was more than 100 µM throughout. Further, the GI50 in assay [5] is 79.6 µM; in assay [6] it was 23 µM; in [7], 26.5 µM.

On to `CC12CC[C@@H](C(C)(C)O)C1[C@@H](O)CC1(C)C2CCC2[C@@]3(C)CC[C@H](O)C(C)(C)C3C(O)C[C@]21C` (stereo partly specified), for which the TGI was 31.1 µM in assay [10]; 39.7 µM in [1]; 46.5 µM in assay [2]; 27.3 µM in assay [3]; 32.1 µM in [5]; 37.5 µM in assay [6]. This compound also came in with a TGI in assay [9] of 35.6 µM.

As to `Cc1nn(CN2CCN(C)CC2)c(=S)n1/N=C/c1cccc2ccccc12`, the GI50 in [1] is 24.5 µM; in assay [2], 20.3 µM; in assay [3], 23.4 µM; in [4], 16 µM; in assay [6], 20.3 µM; in [7], 19 µM. The GI50 in assay [8] was 17.6 µM; in [9] it was 20.5 µM. The TGI was found to be 68.2 µM in assay [1]; 51.6 µM in assay [2]; 55.3 µM in assay [3]; 42.3 µM in [4]; 41.6 µM in assay [6]; 39.8 µM in assay [7]. The TGI in assay [8] was found to be 31.4 µM; in assay [9], 50.1 µM.

`Cc1ccc(CS/C(=C\c2ccc([N+](=O)[O-])cc2)C(=O)c2ccc(F)cc2)cc1`: the GI50 is 1.78 µM in assay [10]; 4.13 µM in [1]; 1.98 µM in assay [2]; 2.23 µM in assay [3]; 17.7 µM in [4]; 2.86 µM in assay [5]. Besides, the GI50 was 6.44 µM in assay [6], 1.64 µM in assay [8] and 15.1 µM in assay [9]. The TGI in assay [10] was 4.26 µM; in assay [1], 20.7 µM; in assay [2], 4.36 µM; in assay [3], more than 100 µM; in assay [4] it was more than 100 µM; in [5], 10.4 µM. Besides, the TGI in assay [6] was found to be 22.5 µM; in assay [8], 3 µM; in assay [9] it was 32.2 µM.

With `COc1ccc(/C(=C2\O[C@@H]([C@H]3COC(C)(C)O3)[C@H]3OC(C)(C)O[C@@H]23)c2cc(OC)c(OC)c(OC)c2)cc1O`, the GI50 is 6.95 µM in [1]; 4.28 µM in assay [2]; 3.75 µM in assay [3]; 4.11 µM in assay [4]; 5.46 µM in assay [5]; 4.31 µM in assay [6]. The results for the GI50 in assay [7], in assay [8] and in assay [9] were 2.73 µM, 5.18 µM and 23.4 µM, respectively. Further, the TGI in [1] is 31.4 µM; in [2], more than 100 µM; in [3] it was more than 100 µM; in [4], 18.5 µM; in assay [5], more than 100 µM; in assay [6], more than 100 µM. For the same compound, the TGI was 9.08 µM in assay [7], more than 100 µM in assay [8] and 61.4 µM in [9].

Turning to `COc1cc(/C=C/c2cc(/C=C/c3ccc(O)c(OC)c3)n(-c3ccccc3)n2)ccc1O`, the GI50 was 0.724 µM in assay [10], 0.127 µM in [3], 0.334 µM in [4] and 0.563 µM in [9]. In addition, the TGI in [10] was 4.1 µM; in [3], more than 100 µM; in [4], 1.27 µM; in assay [9], 1.99 µM.
